Patent US20240277682A1, “PHARMACEUTICAL HYDRONIDONE FORMULATIONS FOR DISEASES” (Gyre Therapeutics, Inc., priority 2021, published 2024)

Experiment: In vitro drug-drug interaction with Entecavir and Lamivudine in human liver microsomes
Conditions: each 1.5 mM, P>0.05
Experimental: Entecavir and Lamivudine, were used concomitantly with Hydronidone, or individually, in the in vitro drug interaction experiments, in respective concentrations of each of 1.5 mM.

## Nc1ccn([C@@H]2CS[C@H](CO)O2)c(=O)n1 [lamivudine, reference compound]
  drug interactions with Hydronidone (residual drug concentrations, individual vs combined medication groups): do not exhibit drug interactions with Hydronidone
